According to US9611256B2, “Alkyne-, azide- and triazole-containing flavonoids as modulators for multidrug resistance in cancers” (The Hong Kong Polytechnic University, priority 2012, dated 2017):
Several values for one entry are separate records, joined by “and”; a condition that tells them apart may be missing. Identical values can stand only once. Like-named read-outs stand apart in the source and are kept apart here.

What was measured:
[1] = system: P-gp, MRP1 and BCRP transporters; assay: Selectivity for ABC transporters, determined from % of reversion (Tables 1 and 2); type: cell-based, human; details: determined from % of reversion in Table 1 (>80% strongly, 79-50% moderately selective)
How it was run: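 Compounds are grouped as acting on one, two or all three of P-gp, MRP1 and BCRP. The basis is percent reversion: 79-50% means moderate selectivity, above 80% strong selectivity.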

BCRP [2] = target: T1, BCRP (Homo sapiens, UniProt Q9UNQ0); assay: Reversal of BCRP-mediated topotecan resistance in HEK293/R2 cells (cell proliferation assay); details: triazole dimers, anti vs syn; cell line not given (Table 1)
T1 sequence (Q9UNQ0 1-655): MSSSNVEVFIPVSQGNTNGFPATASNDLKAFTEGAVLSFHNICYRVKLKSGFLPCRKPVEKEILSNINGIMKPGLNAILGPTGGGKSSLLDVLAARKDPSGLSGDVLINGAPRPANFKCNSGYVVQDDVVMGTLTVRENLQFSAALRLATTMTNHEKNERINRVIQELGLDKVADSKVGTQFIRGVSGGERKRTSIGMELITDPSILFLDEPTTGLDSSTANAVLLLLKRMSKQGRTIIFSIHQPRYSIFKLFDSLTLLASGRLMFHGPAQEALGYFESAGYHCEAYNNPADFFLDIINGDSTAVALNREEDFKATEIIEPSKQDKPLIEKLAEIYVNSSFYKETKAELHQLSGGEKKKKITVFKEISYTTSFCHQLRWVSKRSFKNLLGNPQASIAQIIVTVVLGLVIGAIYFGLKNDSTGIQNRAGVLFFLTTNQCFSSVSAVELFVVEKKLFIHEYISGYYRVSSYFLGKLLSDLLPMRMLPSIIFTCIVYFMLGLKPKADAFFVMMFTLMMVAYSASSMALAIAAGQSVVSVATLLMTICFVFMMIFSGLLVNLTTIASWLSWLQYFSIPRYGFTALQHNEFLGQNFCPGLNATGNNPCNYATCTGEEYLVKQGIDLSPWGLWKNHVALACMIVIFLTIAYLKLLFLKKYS

MRP1 [3] = target: T2, MRP1 (Homo sapiens, UniProt P33527); assay: Reversal of MRP1-mediated vincristine resistance in 2008/MRP1 cells (cell proliferation assay); details: (IC50 towards L929 or Raw264.7)/(EC50 for reversing drug resistance)
P-gp [4] = target: T3, P-gp (Homo sapiens, UniProt P08183); assay: cell-based
in vitro = details: mouse
P-gp [5] = target: T3, P-gp; details: mouse (L929 or Raw264.7) and human (LCC6MDR), 5 days
BCRP [6] = target: T1, BCRP; assay: Reversal of BCRP-mediated topotecan resistance in MCF7-MX100 cells (cell proliferation assay); details: (IC50 towards L929 or Raw264.7)/(EC50 for reversing drug resistance)
MRP1 [7] = target: T2, MRP1; assay: Reversal of MRP1-mediated DOX resistance in 2008/MRP1 cells (cell proliferation assay)
2008/MRP1 = assay: Cell proliferation assay, 2008/MRP1
2008/P cells = assay: Cell proliferation assay, 2008/P; type: cell-based; details: Homo sapiens; without modulator; read-out: IC50 of anticancer drug, parental 2008/P cells
L929 cells = assay: Cytotoxicity assay (MTS) towards L929 normal fibroblasts; details: read-out: Cytotoxicity (IC50, μM) L929; L929 mouse fibroblasts
[8] = as above; details: mouse, L929 fibroblasts
LCC6 cells = assay: Cell proliferation assay without modulator, LCC6; type: cell-based; details: Homo sapiens, LCC-6, read-out: IC50 of anticancer drug, parental LCC6 cells
LCC6MDR = assay: Cell proliferation assay without modulator, LCC6MDR; type: cell-based, human
[9] = system: HEK293/pcDNA3.1 cell line; assay: Cell proliferation assay without modulator, HEK293/pcDNA3.1; type: cell-based; details: Homo sapiens, read-out: IC50 of anticancer drug, wild type HEK293/pcDNA3.1
MCF7-MX100 = assay: Cell proliferation assay without modulator, MCF7-MX100; type: cell-based, human
HEK293/R2 = assay: Cell proliferation assay without modulator, HEK293/R2; type: cell-based; details: Homo sapiens, read-out: IC50 of anticancer drug, HEK293/R2
MCF7 = assay: Cell proliferation assay without modulator, MCF7; type: cell-based; details: Homo sapiens, read-out: IC50 of anticancer drug, wild type MCF7

T2 sequence (P33527 whole entry): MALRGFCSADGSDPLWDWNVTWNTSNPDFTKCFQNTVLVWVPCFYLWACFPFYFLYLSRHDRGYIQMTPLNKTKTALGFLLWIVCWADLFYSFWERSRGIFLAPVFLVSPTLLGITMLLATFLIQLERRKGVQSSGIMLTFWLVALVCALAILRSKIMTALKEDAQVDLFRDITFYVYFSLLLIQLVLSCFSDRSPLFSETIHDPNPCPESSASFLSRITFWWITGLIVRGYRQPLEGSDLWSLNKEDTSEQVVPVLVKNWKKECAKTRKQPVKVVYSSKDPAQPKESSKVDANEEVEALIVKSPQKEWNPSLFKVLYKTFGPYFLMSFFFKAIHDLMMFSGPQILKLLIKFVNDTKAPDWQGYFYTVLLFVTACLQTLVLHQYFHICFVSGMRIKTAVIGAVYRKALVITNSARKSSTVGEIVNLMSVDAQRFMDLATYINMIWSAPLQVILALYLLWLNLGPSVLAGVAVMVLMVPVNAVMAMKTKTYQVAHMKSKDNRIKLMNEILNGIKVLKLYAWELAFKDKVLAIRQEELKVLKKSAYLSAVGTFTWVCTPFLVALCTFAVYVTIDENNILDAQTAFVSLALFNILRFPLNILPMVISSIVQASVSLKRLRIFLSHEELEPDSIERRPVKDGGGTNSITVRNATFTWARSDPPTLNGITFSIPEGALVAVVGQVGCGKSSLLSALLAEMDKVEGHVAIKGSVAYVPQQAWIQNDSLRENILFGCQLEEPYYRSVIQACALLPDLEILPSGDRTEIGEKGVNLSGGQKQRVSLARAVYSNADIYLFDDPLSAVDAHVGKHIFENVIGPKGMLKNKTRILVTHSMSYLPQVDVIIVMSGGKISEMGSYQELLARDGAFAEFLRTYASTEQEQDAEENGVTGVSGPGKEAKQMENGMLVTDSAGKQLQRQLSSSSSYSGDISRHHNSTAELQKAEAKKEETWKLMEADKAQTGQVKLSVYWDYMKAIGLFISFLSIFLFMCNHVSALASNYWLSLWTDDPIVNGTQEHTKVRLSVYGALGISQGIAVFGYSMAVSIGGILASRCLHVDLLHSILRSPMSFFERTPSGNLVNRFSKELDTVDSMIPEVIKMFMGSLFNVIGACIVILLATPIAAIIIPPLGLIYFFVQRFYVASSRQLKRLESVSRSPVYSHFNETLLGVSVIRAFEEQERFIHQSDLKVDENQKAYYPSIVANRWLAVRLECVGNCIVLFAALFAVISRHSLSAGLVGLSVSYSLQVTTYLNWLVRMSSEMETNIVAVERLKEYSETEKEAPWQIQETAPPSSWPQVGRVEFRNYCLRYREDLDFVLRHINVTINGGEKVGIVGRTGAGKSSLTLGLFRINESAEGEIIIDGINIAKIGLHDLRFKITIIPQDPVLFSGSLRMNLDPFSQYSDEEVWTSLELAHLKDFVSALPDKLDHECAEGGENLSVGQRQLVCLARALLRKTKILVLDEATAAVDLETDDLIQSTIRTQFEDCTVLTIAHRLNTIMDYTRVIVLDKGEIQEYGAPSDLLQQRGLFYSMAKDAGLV
T3 sequence (P08183 whole entry): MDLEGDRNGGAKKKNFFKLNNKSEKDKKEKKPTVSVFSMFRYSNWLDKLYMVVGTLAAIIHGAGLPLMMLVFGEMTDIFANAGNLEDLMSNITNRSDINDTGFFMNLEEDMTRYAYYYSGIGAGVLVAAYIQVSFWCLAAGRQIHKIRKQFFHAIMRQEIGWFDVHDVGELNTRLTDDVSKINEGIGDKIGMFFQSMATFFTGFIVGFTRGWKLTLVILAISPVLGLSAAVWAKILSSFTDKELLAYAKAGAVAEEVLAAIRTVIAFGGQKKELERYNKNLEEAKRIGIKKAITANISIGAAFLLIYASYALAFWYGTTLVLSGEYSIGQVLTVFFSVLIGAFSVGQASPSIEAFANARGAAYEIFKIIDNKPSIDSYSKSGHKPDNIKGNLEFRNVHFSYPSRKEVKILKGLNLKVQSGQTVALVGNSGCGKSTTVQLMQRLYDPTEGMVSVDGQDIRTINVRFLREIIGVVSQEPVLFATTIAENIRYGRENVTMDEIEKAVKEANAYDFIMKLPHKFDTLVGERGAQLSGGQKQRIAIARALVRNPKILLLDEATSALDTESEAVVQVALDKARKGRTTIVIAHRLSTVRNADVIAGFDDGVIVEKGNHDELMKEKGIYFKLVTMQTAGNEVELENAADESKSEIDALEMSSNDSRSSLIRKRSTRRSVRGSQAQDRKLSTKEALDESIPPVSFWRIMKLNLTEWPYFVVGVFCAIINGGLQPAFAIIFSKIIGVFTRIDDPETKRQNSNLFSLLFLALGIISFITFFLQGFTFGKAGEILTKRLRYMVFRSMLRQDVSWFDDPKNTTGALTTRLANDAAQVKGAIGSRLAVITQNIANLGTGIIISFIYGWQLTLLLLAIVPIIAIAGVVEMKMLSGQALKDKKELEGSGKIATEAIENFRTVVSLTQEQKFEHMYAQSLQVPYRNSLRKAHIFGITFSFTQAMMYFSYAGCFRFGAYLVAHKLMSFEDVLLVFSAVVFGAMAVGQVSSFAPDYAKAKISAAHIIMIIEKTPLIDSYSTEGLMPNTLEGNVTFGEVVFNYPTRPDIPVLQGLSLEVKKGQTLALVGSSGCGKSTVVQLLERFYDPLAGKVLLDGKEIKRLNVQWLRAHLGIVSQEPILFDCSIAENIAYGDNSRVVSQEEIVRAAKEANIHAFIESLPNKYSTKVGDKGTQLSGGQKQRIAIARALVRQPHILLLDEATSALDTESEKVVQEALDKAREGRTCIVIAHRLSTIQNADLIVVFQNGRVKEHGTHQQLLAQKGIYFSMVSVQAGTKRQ

For `Cc1ccc2oc(-c3ccc(OCCCCc4cn(CCOCCOCCOc5ccc(-c6cc(=O)c7ccccc7o6)cc5)nn4)cc3)cc(=O)c2c1` [Ac5Az2, 6-Methyl-2-(4-(4-(1-(2-(2-(2-(4-(4-oxo-4H-chromen-2-yl)phenoxy)ethoxy)ethoxy)ethyl)-1H-1,2,3-triazol-4-yl)butoxy)phenyl)-4H-chromen-4-one], the “Selectivity for ABC transporters (P-gp, MRP1, BCRP)” value [1] was “mono-MRP1 selectivity” and the “Relative fold (RF), BCRP-modulating activity” value (“Relative fold (RF)” below) (BCRP [2]) was 13.5.
For `Cc1ccc2oc(-c3ccc(OCCCCc4cn(CCOCCOCCOc5ccc6c(=O)cc(-c7ccccc7)oc6c5)nn4)cc3)cc(=O)c2c1` [Ac5Az12, 6-Methyl-2-(4-(4-(1-(2-(2-(2-((4-oxo-2-phenyl-4H-chromen-7-yl)oxy)ethoxy)ethoxy)ethyl)-1H-1,2,3-triazol-4-yl)butoxy)phenyl)-4H-chromen-4-one], the “Vincristine resistance of 2008/MRP1 Therapeutic index” value (MRP1 [3]) was over 1081.1, the EC50 (P-gp [4]) was 141 ± 1 nM and the IC50 at 5 days (in vitro) was over 100000 nM. For the same compound, the “Selectivity for ABC transporters (P-gp, MRP1, BCRP)” value [1] was “mono-BCRP selectivity”, the “Paclitaxel resistance of LCC6MDR Therapeutic index” value (P-gp [5]) was over 709.2 and the “Topotecan resistance of MCF7-MX100 Therapeutic index” value (BCRP [6]) was over 1600.0. For the same compound, the “DOX resistance of 2008/MRP1 Therapeutic index” value (MRP1 [7]; (IC50 towards L929 or Raw264.7)/(EC50 for reversing drug resistance)) was over 759.3.
With `COc1cccc2c1C(=O)c1c(O)c3c(c(O)c1C2=O)C[C@@](O)(C(=O)CO)C[C@@H]3O[C@H]1C[C@H](N)[C@H](O)[C@H](C)O1` [DOX] the IC50 (2008/MRP1; Homo sapiens, 2008/MRP1, read-out: IC50 of anticancer drug, 2008/MRP1, without modulator) was 420 ± 17.4 nM, the IC50 (2008/MRP1; read-out: IC50 of anticancer drug, 2008/MRP1, without modulator) was 413 nM and the “fold more resistance of 2008/MRP1 than parental 2008/P” value (2008/MRP1; without modulator) was “about 8.4 fold”. For the same compound, the IC50 (2008/P cells) was 50.1 ± 3.9 nM.
For `COc1ccc2c3c([nH]c2c1)[C@H](CC(C)C)N1C(=O)[C@H](CCC(=O)OC(C)(C)C)NC(=O)[C@@H]1C3` [Ko143], the IC50 (L929 cells) was 29 µM and 29.2 µM.
In the case of `C/C=C/C[C@@H](C)C(=O)[C@H]1C(=O)N[C@@H](C(C)C)C(=O)N(C)CC(=O)N(C)[C@@H](CC(C)C)C(=O)N[C@@H](C(C)C)C(=O)N(C)[C@@H](CC(C)C)C(=O)N[C@@H](C)C(=O)N[C@H](C)C(=O)N(C)[C@@H](CC(C)C)C(=O)N(C)[C@@H](CC(C)C)C(=O)N(C)[C@@H](C(C)C)C(=O)N1C` [PSC833], the IC50 at 5 days [8] is reported as over 100000 nM.
In the case of `CC(=O)O[C@H]1C(=O)[C@@]2(C)[C@H]([C@H](OC(=O)c3ccccc3)[C@]3(O)C[C@H](OC(=O)[C@H](O)[C@@H](NC(=O)c4ccccc4)c4ccccc4)C(C)=C1C3(C)C)[C@]1(OC(C)=O)CO[C@@H]1C[C@@H]2O` [paclitaxel], the IC50 (LCC6 cells) is reported as 1.6 ± 0.3 nM, the “fold greater resistance of LCC6MDR than parental LCC6 cells” value (LCC6MDR) is reported as “about 99.2 fold” and the IC50 (LCC6MDR; Homo sapiens, LCC6MDR, read-out: IC50 of anticancer drug, LCC6MDR) is reported as 159 ± 6.1 nM.
With `Cc1ccc2oc(-c3ccc(OCCCCc4cnnn4CCOCCOc4ccc(-c5cc(=O)c6ccccc6o5)cc4)cc3)cc(=O)c2c1` [syn-Ac5Az1, 6-Methyl-2-(4-(4-(1-(2-(2-(4-(4-oxo-4H-chromen-2-yl)phenoxy)ethoxy)ethyl)-1H-1,2,3-triazol-5-yl)butoxy)phenyl)-4H-chromen-4-one] the “Relative fold (RF)” value (BCRP [2]) was 11.6.
In the case of `Cc1ccc2oc(-c3ccc(OCCCCc4cnnn4CCOCCOCCOc4ccc(-c5cc(=O)c6ccccc6o5)cc4)cc3)cc(=O)c2c1` [syn-Ac5Az2, 6-Methyl-2-(4-(4-(1-(2-(2-(2-(4-(4-oxo-4H-chromen-2-yl)phenoxy)ethoxy)ethoxy)ethyl)-1H-1,2,3-triazol-5-yl)butoxy)phenyl)-4H-chromen-4-one], the “Relative fold (RF)” value (BCRP [2]) is reported as 9.3 and the “MRP1 inhibitory activity of syn-isomer compared with anti-isomer” value (MRP1 [7]; syn vs anti triazole regioisomer) is reported as “poorer MRP1 inhibitory activity than the anti-isomer Ac5Az2”.
For `CC[C@@]1(O)C(=O)OCc2c1cc1n(c2=O)Cc2cc3c(CN(C)C)c(O)ccc3nc2-1` [topotecan], the IC50 [9] was 15.8 ± 1.5 nM, the “fold more resistance of MCF7-MX100 than wild type MCF7” value (MCF7-MX100) was “about 104.4 fold” and the IC50 (MCF7-MX100; Homo sapiens, MCF7/MX100, read-out: IC50 of anticancer drug, MCF7-MX100) was 33400 ± 2100 nM. The IC50 (HEK293/R2) was 508 ± 31.1 nM and the IC50 (MCF7) was 320 ± 70 nM.
